From patent US20090047704A1, “Combination of a Histological or Cytological Fixing Agent and One or More Photoactivatable Compounds of the Quinone Family, In Particular Hypericin, Hypocrellin A and Hypocrellin B” (NOVACYT, priority 2005, published 2009)
“Also recorded” adds a separate entry of the source.

How the values were obtained:
Assay type in all cases: cell-based
Human glioblastoma cells = assay: Microspectrofluorometer comparison of hypericin fluorescence in living versus fixed glioblastoma cells; conditions: 2 micromoles per ml hypericin in Sakomano cytological fixing agent, one hour
Method: Human glioblastoma cells are cultivated in a petri dish. Hypericin is placed in suspension in a solution of Sakomano cytological fixing agent, with a concentration of 2 micromoles per ml, four hours before the experiments. The fixing agent solution comprising hypericin is shielded from light. The cells of the glioblastoma are directly fixed by placing them in the solution of fixing agent prepared based on hypericin for one hour. Comparative tests are carried out using a microspectrofluorometer in order to compare the level of intensity of fluorescence and the quality of the fluorescence spectrum measured in cultures of identical living glioblastoma cells, incubated at the same concentration for one hour in the solution of Sakomano cytological fixing agent containing hypericin, and the fixed cells.

tumorous HeLa cells = assay: Microspectrofluorometer measurement of hypericin marking in a fixed mixed cell suspension, tumorous cells; conditions: Sakomano fixing agent, 2 μm/ml, one hour, shielded from light
From the text: (§1) Cells from a line of epidermoid malphigian carcinoma of the cervix, of the type HeLa, are cultivated in a petri dish. They are then fixed in a cytological fixing agent of the Sakomano type which already includes normal epithelial cells from a cervical smear in order to verify the affinity of hypericin for the tumorous cells in a cell suspension containing several types of normal cells and tumorous cells. Hypericin is then placed in suspension for one hour in the cell suspension fixed at a concentration of 2 μm/ml and shielded from light. Tests are carried out using a microspectrofluorometer in order to compare the level of intensity of fluorescence and the quality of the fluorescence spectrum measured for the different cells of the suspension, incubated at the same concentration for one hour in the solution of Sakomano cytological fixing agent containing hypericin.

[1] = tested on: normal epithelial cells from a cervical smear; assay: Microspectrofluorometer measurement of hypericin marking in a fixed mixed cell suspension, normal cells; conditions: Sakomano fixing agent, 2 μm/ml, one hour, shielded from light
From the text: as §1

tumorous cells = assay: Incorporation of hypericin by tumorous cells suspended in fixing agent solution; conditions: tumorous cells in suspension in fixing agent solution containing micromolar measures of hypericin
From the text: Since the liquid phase of the cell suspension practically no longer contains hypericin, it is possible to carry out a direct analysis of the cells (morphological and/or fluorescence emission analysis) without rinsing the cell suspension. This property therefore allows the cell/tissue preparation and the analysis of the cells to be automated.

Cc1cc(O)c2c(=O)c3c(O)cc(O)c4c5c(O)cc(O)c6c(=O)c7c(O)cc(C)c8c1c2c(c34)c(c78)c65 [hypericin, 1,3,4,6,8,13-hexahydroxy-10,11-dimethylphenanthro(1,10,9,8,opqra)perylene-7,14-dione]
fluorescence spectrums, living cells versus fixed cells (Human glioblastoma cells): can be completely superimposed | levels of intensity of the fluorescence, living cells versus fixed cells (Human glioblastoma cells): identical | affinity of hypericin for tumorous cells (tumorous HeLa cells): great affinity | localisation of hypericin in tumorous cells (tumorous HeLa cells): preferential perinuclear localisation; also recorded: very specific preferential perinuclear localisation | affinity of hypericin for normal cells [1]: very low level of affinity; also recorded: low level of affinity | localisation of hypericin in normal cells [1]: peripheral localisation in the region of the cell membrane | incorporation of hypericin by the cells (tumorous cells): almost all of the hypericin is incorporated by the cells
